According to EP1343508B1, “USE OF AN OESTROGEN IN THE MANUFACTURE OF A COMPOSITION CONTAINING OESTROGEN FOR THE TREATMENT OF ATROPHIC VAGINITIS” (Novo Nordisk Femcare AG, priority 2000, dated 2002):
“And” between values parts separate entries of the source, which are not always exact repeats. Identical values can stand only once. Marks after values point to notes of the source that are not given here.

Assays:
vaginal mucosal cells = test: Maturation value of vaginal mucosal cells, Example 2; type: in vivo, postmenopausal women
Method: Maturation values of vaginal mucosal cells were assessed as an indicator of changes in the condition of the vaginal mucosa in response to treatment.
After the screening visit, patients received no study treatment during the 4-week run-in period prior to the baseline visit. […] The vaginal tablets were identical in appearance. Patients inserted 1 tablet intravaginally, once daily for the initial 2 weeks of the study and then twice per week (Sunday and Thursday) for the remaining 10 weeks. Patients were instructed to use their medication at a consistent time each day, preferably in the morning.
Upon presentation to the clinic for each visit, a vaginal cytology specimen was obtained. Patients then inserted the tablets. […] The blood samples obtained at 30 minutes before insertion, and at 6, 12, and 24 hours after insertion were also used to determine the FSH concentration via immunoradiometric assay. […]

[1] = system: postmenopausal women with atrophic vaginitis; test: Vaginal symptom composite score (dryness, soreness, irritation), Example 3; type: in vivo; settings: scale 0-3
Method: Efficacy was measured with composite scores of vaginal symptoms (dryness, soreness, and irritation) and vaginal health (secretions, epithelial integrity, surface thickness, and pH). Vaginal and urethral cytology analyses were also performed, and the vaginal maturation value was determined. Safety assessments included endometrial biopsies. […] All vaginal tablets were identical in appearance. Patients inserted 1 tablet daily for 14 days. Thereafter, patients inserted 1 tablet twice per week (Sunday and Thursday) for the remainder of the trial. Patients were to insert the tablets at the same time each day (preferably at bedtime). Patients were evaluated for efficacy and safety at Week - 4 (screening), Week 0 (baseline), and Weeks 2, 7, and 12. Efficacy assessments included patient ratings of atrophic vaginitis symptoms, investigator ratings of vaginal health, and vaginal and urethral cytology. Patients used intensity ratings of none, mild, moderate, or severe to evaluate atrophic vaginitis symptoms (dryness, soreness, irritation, dyspareunia, and vaginal discharge). Intensity ratings were assigned ascending scores from 0 (none) to 3 (severe) for analysis. A composite score for atrophic vaginitis symptoms was defined as the average of the individual symptom scores for dryness, soreness, and irritation. […] The composite score and the change from baseline for the composite score were examined at each time point. Differences within and between treatment groups were analyzed using an analysis of variance (ANOVA). […] Efficacy was measured with composite scores of vaginal symptoms (dryness, soreness, and irritation) and vaginal health (secretions, epithelial integrity, surface thickness, and pH). Vaginal and urethral cytology analyses were also performed, and the vaginal maturation value was determined. Safety assessments included endometrial biopsies. […] Patients were evaluated for efficacy and safety at Week - 4 (screening), Week 0 (baseline), and Weeks 2, 7, and 12. […] Differences within and between treatment groups were analyzed using an analysis of variance (ANOVA).

vaginal mucosa = test: Vaginal maturation value, Example 3; type: in vivo, postmenopausal women
Method: (§1) Efficacy was measured with composite scores of vaginal symptoms (dryness, soreness, and irritation) and vaginal health (secretions, epithelial integrity, surface thickness, and pH). Vaginal and urethral cytology analyses were also performed, and the vaginal maturation value was determined. Safety assessments included endometrial biopsies.
(§2) All vaginal tablets were identical in appearance. Patients inserted 1 tablet daily for 14 days. Thereafter, patients inserted 1 tablet twice per week (Sunday and Thursday) for the remainder of the trial. Patients were to insert the tablets at the same time each day (preferably at bedtime). Patients were evaluated for efficacy and safety at Week - 4 (screening), Week 0 (baseline), and Weeks 2, 7, and 12.
(§3) Vaginal and urethral cell samples were harvested and analyzed by independent cytologists to determine the percentages of parabasal, intermediate, and superficial cells. Maturation values were calculated according to the following equation: maturation value = 1.0 × [superficial cells, %] + 0.5 × [intermediate cells, %] [formula] Endometrial biopsies were performed at the end of the study in patients with intact uteri. The number of patients with abnormal biopsies was compared between treatment groups.

[2] = system: superficial vaginal and urethral cells; test: Superficial vaginal and urethral cells taken together, subjects per category, Example 3; type: in vivo, postmenopausal women; settings: for percentage of subjects with both superficial vaginal and urethral cells less than or equal to 5% / subjects with percentages of both superficial vaginal and urethral cells less than or equal to 5%: Week 0; for percentage of subjects with increases in percentages of both superficial vaginal and urethral cells / subjects with increases in percentages of both superficial vaginal and urethral cells: Week 12
Method: as §1, §2, §3

C[C@]12CC[C@@H]3c4ccc(O)cc4CC[C@H]3[C@@H]1CC[C@@H]2O [E2, 17β-estradiol]
maturation value, Mean ± SD (vaginal mucosal cells; 10 µg E2, Week 0 (baseline)): 51.0 and 51.0 ± 6.2 | maturation value, Mean change ± SD from baseline (vaginal mucosal cells; 10 µg E2, Week 12): 11.2 ± 17.8^b | maturation value, Mean ± SD (vaginal mucosal cells; 10 µg E2, Week 12): 62.2 ± 15.7 | patients with increases in maturation values from baseline (vaginal mucosal cells; 10 µg E2, Week 12): 14 patients | percentage of patients with increases in maturation values from baseline (vaginal mucosal cells; 10 µg E2, Week 12): 64% | maturation value, Mean ± SD (vaginal mucosal cells; 25 µg E2, Week 0 (baseline)): 52.4 and 53.4 and 52.4 ± 7.1 | maturation value, Mean change ± SD from baseline (vaginal mucosal cells; 25 µg E2, Week 12): 7.0 ± 8.7^b | maturation value, Mean ± SD (vaginal mucosal cells; 25 µg E2, Week 12): 58.4 ± 7.5 | patients with increases in maturation values from baseline (vaginal mucosal cells; 25 µg E2, Week 12): 13 patients | percentage of patients with increases in maturation values from baseline (vaginal mucosal cells; 25 µg E2, Week 12): 68% | vaginal symptom composite score ([1]; 10 µg E2, Week 12): ~0.6 | vaginal symptom composite score ([1]; 25 µg E2, Week 12): approximately 0.5 | vaginal symptom composite score ([1]; each treatment group (25 or 10 µg E2), Week 0 (baseline)): approximately 1.9 | maturation values (vaginal mucosa; active treatment groups (25 or 10 µg E2), Week 12): approximately 60% | maturation values (vaginal mucosa; each treatment group (25 or 10 µg E2), Week 0): approximately 45% | percentage of subjects with both superficial vaginal and urethral cells less than or equal to 5% ([2]; 10 µg E2): 85% | subjects with percentages of both superficial vaginal and urethral cells less than or equal to 5% ([2]; 10 µg E2): 53 subjects | percentage of subjects with increases in percentages of both superficial vaginal and urethral cells ([2]; 10 µg E2): 71% | subjects with increases in percentages of both superficial vaginal and urethral cells ([2]; 10 µg E2): 44 subjects | percentage of subjects with both superficial vaginal and urethral cells less than or equal to 5% ([2]; 25 µg E2): 81% | subjects with percentages of both superficial vaginal and urethral cells less than or equal to 5% ([2]; 25 µg E2): 57 subjects | percentage of subjects with increases in percentages of both superficial vaginal and urethral cells ([2]; 25 µg E2): 74% | subjects with increases in percentages of both superficial vaginal and urethral cells ([2]; 25 µg E2): 52 subjects
